Test results taken from patent publication US20260198495A1, “BINARY INSECTICIDE COMPOSITION AND USE THEREOF” (SHENYANG SINOCHEM AGROCHEMICALS R & D CO., LTD., priority 2022, published 2026).

Key:
Assay type in all cases: in vivo
[1] = tested on: 2nd-instar larvae of Plutella xylostella; assay: whole plant or invertebrate; details: Plutella xylostella; single pesticide, 0.5 mg/L; 72 hours; read-out: Measured mortality rate
Method: Test target: 2nd-instar larvae of Plutella xylostella.
(§1) Preparation of the pesticide solution: according to different test requirements, the test samples were accurately weighed respectively with an electronic analytical balance. The technical pesticides were dissolved in acetone, and then diluted with 0.1% Tween 80 water into a series of pesticide solutions with a certain concentration gradient according to the experimental design dosage.
(§2) Experimental method: first, cabbage leaves were selected and dipped in the prepared pesticide solution for 10 s in the order from low dosage to high dosage according to the experimental design. After natural air-drying in the shade, they were placed in a 9-cm-diameter Petri dish with filter paper, and uniform and healthy test insects were introduced, with 10 insects for each treatment and 3 replicates for each treatment. In addition, a blank control (CK) was set up.
(§3) The treated test materials were placed in an observation room, and the temperature, humidity and illumination of the observation room could be adjusted as needed. The number of dead and alive insects was investigated 72 hours later, and the corrected mortality rate was calculated using the Abbott's formula.
(§4) The synergism of the mixture was evaluated by the Bliss method. According to the concept of independent joint action he proposed, Bliss believes that the theoretical mortality rate P when insecticides are used in combination can be calculated by the following formula: […]
(§5) Pm is the measured mortality rate (%) of the target when the first active ingredient is at a concentration of m; and Pn is the measured mortality rate (%) of the target when the second active ingredient is used at a concentration of n.
(§6) If the actual mortality rate of the target after the two active ingredients are mixed at a certain concentration is greater than theoretical mortality rate P, it is determined that the two active ingredients have a synergistic effect when used in combination at the set concentration, and otherwise, they have an antagonistic effect.

[2] = tested on: 3rd-instar larvae of Spodoptera exigua Hübner; assay: Joint toxicity of I-72 + emamectin benzoate, leaf-disk dipping, Example 9, Table 9; details: Spodoptera exigua, cabbage leaf-disk dipping, 72 h, A = compound I-72, B = emamectin benzoate, read-out: LC50
Description: Test subject: 3rd-instar larvae of Spodoptera exigua Hübner, a sensitive strain reared indoors.
Experimental method: the dipping method was adopted. The cabbage leaves cultivated in the greenhouse were taken, the surface wax layer was removed, and leaf disks with a diameter of 3 cm were made with a puncher. The leaf disks were dipped in the prepared pesticide solution for 10 s, and then put into a 9-cm-diameter Petri dish lined with filter paper. After natural air-drying in the shade, the standard test insects were introduced, with 10 insects placed in each dish and 3 replicates performed. The treated test insects were placed in an observation room under certain conditions. The reaction of the test insects was regularly observed, and the number of dead and live insects was investigated 72 h later.
The test conditions, the preparation of the pesticide solution and the evaluation method were the same as those in Example 1.

[3] = tested on: 3rd-instar larvae of Plutella xylostella; assay: Joint toxicity of I-72 + metaflumizone, airbrush spraying, Example 4, Table 4; details: Plutella xylostella, foliar, airbrush spraying of cabbage leaf disks, 72 h, A = compound I-72, B = metaflumizone, read-out: LC50
Method: Test target: 3rd-instar larvae of Plutella xylostella, a sensitive strain reared indoors.
Test conditions: temperature: 25-27° C., humidity: RH 60%, and illumination: L:D=14:10
Experimental method: the airbrush spraying method was adopted. The cabbage cultivated in the greenhouse was taken and made into leaf disks with a diameter of 3 cm. After uniform spraying treatment with an airbrush manual sprayer, the leaf disks were placed in a 9-cm Petri dish lined with filter paper. After natural air-drying in the shade, the standard test insects were introduced, and the number of dead and live insects was investigated 72 h later.
The preparation of the pesticide solution and the evaluation method (Sun Y-P) for the joint action type of the mixture were the same as those in Example 1.

adult Phyllotreta spp. = assay: Joint toxicity of I-72 + organophosphorus insecticides, cabbage seedling spraying, Example 19, Table 19; details: adults, cabbage seedling spraying, 72 h; A = compound I-72, B = acephate; read-out: LC50
Method: Test target: adult Phyllotreta spp., a sensitive strain reared indoors.
as §1
Experimental method: first, fresh cabbage seedlings cultivated in the greenhouse were selected and evenly sprayed with the pesticide solution in the order from low dosage to high dosage according to the experimental design. After natural air-drying in the shade, they were covered with a glass cover, and uniform and healthy test insects were introduced, with 10 insects for each treatment and 3 replicates for each treatment. In addition, a blank control was set up.
The treated test materials were placed in an observation room, and the temperature, humidity and illumination of the observation room could be adjusted as needed. The number of dead and live insects was investigated 72 hours later. The corrected mortality rate was calculated using the Abbott's formula, and statistical analysis was performed with the DPS data processing software to obtain the toxicity regression equation, LC50 value and 95% confidence limit of each single test pesticide and each mixture of different ratios. Then, the co-toxicity coefficient of each ratio was calculated using the Sun Y-P method to evaluate the mixing effect (the same as in Example 1).

Aphis craccivora nymphs = assay: Synergism screening (Bliss) of I-72 + pyrethroid insecticides, Example 38, Table 38; details: Aphis craccivora, single pesticide, broad bean seedling spraying, 48 hours, read-out: Measured mortality rate (%)
Method: Test target: Aphis craccivora nymphs, a sensitive strain reared indoors.
as §1
Experimental method: first, broad bean seedlings with uniform and consistent Aphis craccivora were selected, with about 30-40 insects on each seedling. Then, they were evenly sprayed with the pesticide solution in the order from low dosage to high dosage according to the experimental design, with 1.5 mL of the solution for each leaf and 3 replicates for each treatment. In addition, a blank control (CK) was set up.
as §3, with “48” for “72”
The synergism of the mixture was evaluated by adopting the Bliss method, as in Example 5.

[4] = tested on: 3rd-instar larvae of Yponomeuta evonymallus (Linnaeus); assay: Synergism screening (Bliss) of I-72 + pyrethroid insecticides, Example 37, Table 37; details: single pesticide, leaf dipping, 72 hours
Method: Test target: 3rd-instar larvae of Yponomeuta evonymallus (Linnaeus).
as §1
as §2, with “method: Firstly, Hylotelephium spectabile” for “method: first, cabbage”, “dipped into” for “dipped in”, “pesticide solutions” for “pesticide solution”
as §3, §4, §5, §6

CN(C(=O)c1ccc2c(c1)OC(F)(F)O2)c1cccc(C(=O)Nc2c(Br)cc(C(F)(C(F)(F)F)C(F)(F)F)cc2OC(F)F)c1F [Compound I-72]
mortality at 0.5 µg/mL [1]: 80%
LC50 [2]: 0.241 mg/L
LC50 [3]: 0.0867 mg/L
LC50 (adult Phyllotreta spp.): 3.01 mg/L
mortality at 0.1 µg/mL (Aphis craccivora nymphs; concentration 0.1 mg/L): 11.9%
mortality at 3 µg/mL (Aphis craccivora nymphs; concentration 3 mg/L): 60.6%
Measured mortality rate (%) ([4]; concentration 0.1 mg/L): 11.1%
Measured mortality rate (%) ([4]; concentration 5 mg/L): 57.1%
